≈ marks a conversion by molar mass, not a printed value. Read-outs that look alike come from different tables or passages of the source.
How the values were obtained:
Type in all cases: cell-based
Streptococcus bovis = test: MIC, agar dilution, Streptococcus bovis; conditions: Streptococcus equinus; strain UC6281; read-out: MIC
Procedure: (§1) Stock solution of each test antibiotic compound were prepared to have a concentration of 2 mg. of the test compound per milliliter in sterile water of 0.1M ammonium acetate solution. The amount of each compound used was adjusted for base compound activity as calculated from the purity data for the selected batch of compound.
(§2) The dilution procedure described by Washington and Sutter [Manual of Clinical Microbiology, 3rd, Edit. (Lennett, E. H. et al, Eds.), pp. 453-458 (1980), American Society for Microbiology, Washington, D.C.] was modified so that serial concentrations of 128 to 0.0625 microgram/ml. in sterile water was obtained. Then 1.5 ml. aliquots of these test antibiotic dilution mixtures are added to 13.5 molten (50° C.) Mueller-Hinton agar. Each resulting mixture is poured into 15×100 mm, sterile Petri plates and allowed to dry at room temperature overnight.
(§3) Test bacterial cultures are maintained at -70° C. on glass beads. [See R. J. Yancey, Jr. et al, Amer. Jr. of Vet. Research, 48, No. 7, pp. 1050-1053, (1987)]. At least one bacteria-laden bead per culture is dropped into one ml. of brain heart infusion (BHI) broth for overnight culture at 37° C. in 5% V/V carbon dioxide in air atmosphere.
(§4) On the data of assay, 2 to 8 drops of the bacterial broth cultures are transferred to fresh BHI broth (1 ml.) and the mixture is incubated for 4 to 6 hours at 37° C. in a 5% V/V carbon dioxide in air atmosphere. The resulting cultures are then diluted to match a 0.5 MacFarland standard and further diluted 1:20 V/V with sterile saline solution.
(§5) A 0.001 ml. drop of the resulting mixture, containing approximately 10^3 to 10^4 colony forming units (CFU) of each test bacteria organism, is dispensed onto the surface of the test antibiotic compound test plates with a Steer's type replicator. The resulting innoculated plates are incubated 16 to 18 hours at 37° C. with a carbon dioxide atmosphere.
(§6) Stock solutions of each test antibiotic compound were prepared to have a concentration of 2 mg. of the test compound per milliliter in sterile water of 0.1M ammonium acetate solution. The amount of each compound used was adjusted for base compound activity as calculated from the purity data for the selected batch of compound.
(§7) The dilution procedure described by Washington and Sutter [Manual of Clinical Microbiology, 3rd, Edit. (Lennett, E. H. et al, Eds.), pp. 453-458 (1980), American Society for Microbiology, Washington, D.C.] was modified so that serial concentrations of 128 to 0.0625 microgram/ml. in sterile water was obtained. Then 1.5 ml. aliquots of these test antibiotic dilution mixtures are added to 13.5 molten (50° C.) Mueller-Hinton agar. Each resulting mixture is poured into 15×100 mm. sterile Petri plates and allowed to dry at room temperature overnight.
(§8) The dilution procedure described by Washington and Sutter [Manual of Clinical Microbiology, 3rd, Edit. (Lennett, E. H. et al, Eds.), pp. 453-458 (1980), American Society for Microbiology. Washington, D.C.] was modified so that serial concentrations of 128 to 0.0625 microgram/ml. in sterile water was obtained. Then 1.5 ml. aliquots of these test antibiotic dilution mixtures are added to 13.5 molten (50° C.) Mueller-Hinton agar. Each resulting mixture is poured into 15×100 mm. sterile Petri plates and allowed to dry at room temperature overnight.
(§9) Test bacterial culture are maintained at -70° C. on glass beads. [See R. J. Yancey, Jr. et al, Amer. Jr. of Vet. Research, 48, No. 7, pp. 1050-1053, (1987)]. At least one bacteria-laden bead per culture is dropped into one ml. of brain heart infusion (BHI) broth for overnight culture at 37° C. in 5% V/V carbon dioxide in air atmosphere.
(§10) On the day of assay, 2 to 8 drops of the bacterial broth cultures are transferred to fresh BHI broth (1 ml.) and the mixture is incubated for 4 to 6 hours at 37° C. in a 5% V/V carbon dioxide in air atmosphere. […]

Enterococcus faecalis = test: MIC, agar dilution, Enterococcus faecalis; conditions: Enterococcus faecalis; strain UC694; read-out: MIC
Procedure: as §6, §2, §3, §4, §5, §1, §7, §8, §9, §10

Escherichia coli = test: MIC, agar dilution, Escherichia coli; conditions: Escherichia coli, read-out: MIC
Procedure: as §1, §2, §3, §4, §5, §6, §7, §8, §9, §10

Salmonella choleraesuis = test: MIC, agar dilution, Salmonella choleraesuis; conditions: Salmonella enterica, read-out: MIC
Procedure: as §1, §2, §3, §4, §5, §6, §7, §8, §9, §10

[1] = system: Streptococcus dysgalactiae; test: MIC, agar dilution, Streptococcus dysgalactiae; conditions: Streptococcus dysgalactiae; strain UC251; read-out: MIC
Procedure: as §1, §2, §3, §4, §5, §6, §7, §8, §9, §10

Staphylococcus aureus = test: MIC, agar dilution, Staphylococcus aureus; conditions: Staphylococcus aureus, read-out: MIC
Procedure: as §1, §2, §3, §4, §5, §6, §7, §8, §9, §10

Salmonella typhimurium = test: MIC, agar dilution, Salmonella typhimurium; conditions: Salmonella enterica, read-out: MIC
Procedure: as §1, §2, §3, §4, §5, §6, §7, §8, §9, §10

Pasteurella multocida = test: MIC, agar dilution, Pasteurella multocida; conditions: Pasteurella multocida; strain UC9581; read-out: MIC
Procedure: as §1, §2, §3, §4, §5, §6, §7, §8, §9, §10

[2] = system: Bordetella bronchiseptica; test: MIC, agar dilution, Bordetella bronchiseptica; conditions: Bordetella bronchiseptica; strain UC6313; read-out: MIC
Procedure: as §1, §2, §3, §4, §5, §6, §7, §8, §9, §10

Pasteurella hemolytica = test: MIC (minimum inhibitory concentration), agar dilution, Pasteurella hemolytica; conditions: Pasteurella, read-out: MIC
Procedure: as §1, §2, §3, §4, §5, §6, §7, §8, §9, §10

Corynebacterium pyogenes = test: MIC, agar dilution, Corynebacterium pyogenes; conditions: strain 213-2; read-out: MIC
Procedure: as §1, §2, §3, §4, §5, §6, §7, §8, §9, §10

Streptococcus agalactiae = test: MIC, agar dilution, Streptococcus agalactiae; conditions: Streptococcus agalactiae, read-out: MIC
Procedure: as §1, §2, §3, §4, §5, §6, §7, §8, §9, §10

Streptococcus uberis = test: MIC, agar dilution, Streptococcus uberis; conditions: Streptococcus uberis, read-out: MIC
Procedure: as §1, §2, §3, §4, §5, §6, §7, §8, §9, §10

Streptococcus suis = test: MIC, agar dilution, Streptococcus suis; conditions: Streptococcus suis; strain 650-2; read-out: MIC
Procedure: as §1, §2, §3, §4, §5, §6, §7, §8, §9, §10

Pseudomonas aeruginosa = test: MIC, agar dilution, Pseudomonas aeruginosa; conditions: Pseudomonas aeruginosa, ATCC27853; strain ATCC 27853; read-out: MIC
Procedure: as §1, §2, §3, §4, §5, §6, §7, §8, §9, §10

Micrococcus luteus = test: MIC, agar dilution, Micrococcus luteus; conditions: Micrococcus luteus; strain UC130; read-out: MIC
Procedure: as §1, §2, §3, §4, §5, §6, §7, §8, §9, §10

Enterococcus faecium = test: MIC, agar dilution, Enterococcus faecium; conditions: Enterococcus faecium; strain UC241; read-out: MIC
Procedure: as §6, §2, §3, §4, §5, §1, §7, §8, §9, §10

[3] = CHOLERAESUIS / UC6073, strain UC6073
[4] = CHOLERAESUIS / UC6077, strain UC6077
[5] = TYPHIMURIUM / UC6162, strain UC6162
[6] = TYPHIMURIUM / UC6164, strain UC6164

| Compound | MIC (Streptococcus bovis) [mg/L] | MIC (Enterococcus faecalis) [mg/L] | MIC (Escherichia coli; strain UC3784) [mg/L] | MIC (Escherichia coli; strain UC6720) [mg/L] | MIC (Escherichia coli; strain UC9670) [mg/L] | MIC (Salmonella choleraesuis; [3]) [mg/L] | MIC (Salmonella choleraesuis; [4]) [mg/L] | MIC [1] [mg/L] | MIC (Staphylococcus aureus; strain UC6093) [mg/L] | MIC (Staphylococcus aureus; strain UC6097) [mg/L] | MIC (Staphylococcus aureus; strain UC9203) [mg/L] | MIC (Salmonella typhimurium; [5]) [mg/L] | MIC (Salmonella typhimurium; [6]) [mg/L] | MIC (Pasteurella multocida) [mg/L] | MIC [2] [mg/L] | MIC (Pasteurella hemolytica; strain UC6531) [mg/L] | MIC (Pasteurella hemolytica; strain UC6532) [mg/L] | MIC (Pasteurella hemolytica; strain UC9582) [mg/L] | MIC (Corynebacterium pyogenes) [mg/L] | MIC (Streptococcus agalactiae; strain UC3947) [mg/L] | further results |
| --- | --- | --- | --- | --- | --- | --- | --- | --- | --- | --- | --- | --- | --- | --- | --- | --- | --- | --- | --- | --- | --- |
| CO/N=C(\C(=O)N[C@@H]1C(=O)N2C(C(=O)O)=C(CSSc3ccccc3)CS[C@H]12)c1csc(N)n1 [Example 15] | ≤ 0.06 | > 32 | 8 (≈ 14.9 µM) | 8 (≈ 14.9 µM) | 8 (≈ 14.9 µM) | 32 (≈ 59.5 µM) | 32 (≈ 59.5 µM) | ≤ 0.06 | 2 (≈ 3.72 µM) | 2 (≈ 3.72 µM) | 2 (≈ 3.72 µM) | 16 (≈ 29.8 µM) | 8 (≈ 14.9 µM) | ≤ 0.06 | > 32 | 0.13 (≈ 0.242 µM) | 0.25 (≈ 0.465 µM) | 0.25 (≈ 0.465 µM) | 4 (≈ 7.44 µM) | ≤ 0.06 | MIC (Streptococcus agalactiae; strain UC6892): ≤ 0.06 mg/L; MIC (Streptococcus uberis; strain UC3946): ≤ 0.06 mg/L; MIC (Streptococcus uberis; strain UC6159): 16 mg/L (≈ 29.8 µM); MIC (Streptococcus suis): ≤ 0.06 mg/L; MIC (Pseudomonas aeruginosa): > 32 mg/L; MIC (Micrococcus luteus): ≤ 0.06 mg/L; MIC (Enterococcus faecium): > 32 mg/L |
| CO/N=C(\C(=O)N[C@@H]1C(=O)N2C(C(=O)O)=C(CSSCc3ccco3)CS[C@H]12)c1csc(N)n1 [Example 16] | ≤ 0.06 | > 32 | 4 (≈ 7.38 µM) | 8 (≈ 14.8 µM) | 4 (≈ 7.38 µM) | 16 (≈ 29.5 µM) | 32 (≈ 59.1 µM) | ≤ 0.06 | 1 (≈ 1.85 µM) | 2 (≈ 3.69 µM) | 1 (≈ 1.85 µM) | 16 (≈ 29.5 µM) | 8 (≈ 14.8 µM) | 1 (≈ 1.85 µM) | > 32 | 0.25 (≈ 0.462 µM) | 0.13 (≈ 0.24 µM) | 0.13 (≈ 0.24 µM) | 0.13 (≈ 0.24 µM) | ≤ 0.06 | MIC (Streptococcus agalactiae; strain UC6892): ≤ 0.06 mg/L; MIC (Streptococcus uberis; strain UC3946): ≤ 0.06 mg/L; MIC (Streptococcus uberis; strain UC6159): 4 mg/L (≈ 7.38 µM); MIC (Streptococcus suis): ≤ 0.06 mg/L; MIC (Pseudomonas aeruginosa): > 32 mg/L; MIC (Micrococcus luteus): ≤ 0.06 mg/L; MIC (Enterococcus faecium): > 32 mg/L |
| CO/N=C(\C(=O)N[C@@H]1C(=O)N2C(C(=O)O)=C(CSSc3ccc(Cl)cc3)CS[C@H]12)c1csc(N)n1 [Example 17] | ≤ 0.06 | > 32 | 2 (≈ 3.5 µM) | 4 (≈ 6.99 µM) | 8 (≈ 14 µM) | 8 (≈ 14 µM) | 8 (≈ 14 µM) | ≤ 0.06 | 4 (≈ 6.99 µM) | 2 (≈ 3.5 µM) | 2 (≈ 3.5 µM) | 4 (≈ 6.99 µM) | 4 (≈ 6.99 µM) | ≤ 0.06 | > 32 | ≤ 0.06 | 0.13 (≈ 0.227 µM) | 0.13 (≈ 0.227 µM) | ≤ 0.06 | ≤ 0.06 | MIC (Streptococcus agalactiae; strain UC6892): ≤ 0.06 mg/L; MIC (Streptococcus uberis; strain UC3946): ≤ 0.06 mg/L; MIC (Streptococcus uberis; strain UC6159): 4 mg/L (≈ 6.99 µM); MIC (Streptococcus suis): ≤ 0.06 mg/L; MIC (Pseudomonas aeruginosa): > 32 mg/L; MIC (Micrococcus luteus): ≤ 0.06 mg/L; MIC (Enterococcus faecium): > 32 mg/L |
| CO/N=C(\C(=O)N[C@@H]1C(=O)N2C(C(=O)O)=C(CSSc3ccc([N+](=O)[O-])cc3)CS[C@H]12)c1csc(N)n1 [Example 18] | ≤ 0.06 | > 32 | 1 (≈ 1.72 µM) | 2 (≈ 3.43 µM) | 1 (≈ 1.72 µM) | 2 (≈ 3.43 µM) | 4 (≈ 6.86 µM) | ≤ 0.06 | 2 (≈ 3.43 µM) | 2 (≈ 3.43 µM) | 2 (≈ 3.43 µM) | 4 (≈ 6.86 µM) | 2 (≈ 3.43 µM) | ≤ 0.06 | > 32 | 0.25 (≈ 0.429 µM) | ≤ 0.06 | ≤ 0.06 | 0.25 (≈ 0.429 µM) | ≤ 0.06 | MIC (Streptococcus agalactiae; strain UC6892): ≤ 0.06 mg/L; MIC (Streptococcus uberis; strain UC3946): 0.25 mg/L (≈ 0.429 µM); MIC (Streptococcus uberis; strain UC6159): 8 mg/L (≈ 13.7 µM); MIC (Streptococcus suis): ≤ 0.06 mg/L; MIC (Pseudomonas aeruginosa): > 32 mg/L; MIC (Micrococcus luteus): ≤ 0.06 mg/L; MIC (Enterococcus faecium): > 32 mg/L |
